Common to all, as to format: cell-based
Experiment [1] deals with T1, CFTR ΔF508 mutant (Homo sapiens, UniProt P13569, DEL508-508).
T1 construct: expressed in transfected cells; host or cells: CFBE41o- (adenoviral transduction)
As to the kind of experiment: YFP-halide influx assay for the CFTR-ΔF508 mutation (96 well, CFBE41o- cells). Conditions: read-out: EC50 measured by YFP-halide influx assay for the CFTR-ΔF508. The text has this: 6.1. YFP-Halide Influx Assay for the CFTR-ΔF508 Mutation
The YFP halide influx assay measures the functionality of the cystic fibrosis Transmembrane Conductance regulator (CFTR) channels in the cystic fibrosis bronchial epithelium cell line CFBE41o-. The assay is used to evaluate the capacity of compounds to increase the open probability of existing CFTR channels in the membrane. It makes use of the observation that the yellow fluorescent protein (YFP) variant YFP H148Q, I152L has its fluorescence substantially quenched by halide ions like Cl^− and I^−. (Galietta et al., 2001; Nagai et al., 2002)
For this purpose, CFBE410-cells are seeded in 96 well plates (6000 CFBE cells/well). One day after seeding, the CFBE cells are transduced with adenoviral vectors that direct the expression of the CFTR ΔF508 mutant and of the YFP reporter. Cells are incubated at 27° C., 5% CO2 for 24 hours so as to allow for the proper folding and migration to the membrane of the CFTR channel or treated with a CFTR modulator during 24 h at 37° C.
The […] quenching of fluorescence is recorded immediately after injection of I^− for 7 seconds. The capacity of a compound to increase the channel opening is directly correlated with the decrease in fluorescence, and is expressed as (1-(fluorescence after 7 seconds (F)/fluorescence before injection (F0))) and an EC50 can be derived from a (1−F/F0) vs compound concentration plot.

For experiment [2], the target named is T1, CFTR ΔF508 mutant. Description: YFP-halide influx assay for the CFTR-ΔF508 mutation (384 well, CFBE41o- cells, FDSS/μCell). The settings on record: forskolin 10.67 μM, fluorescence after 36 seconds, read-out: EC50 measured by YFP-halide influx assay for the CFTR-ΔF508. The method, boiled down:
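CFBE41o- cells were adenovirally transduced with ΔF508 CFTR and the YFP H148Q/I152L reporter. Cells were then held 24 h at 27 °C or treated 24 h at 37 °C with a CFTR modulator. Iodide-induced quench was recorded for 2 min, and EC50 was derived from 1−F/F0 at 36 s against compound concentration.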

Another experiment has as its target T2, CFTR G551D mutant (Homo sapiens, UniProt P13569, G551D).
T2 construct: expressed in transfected cells; host or cells: HEK293 (reverse transfection with plasmids)
As to the kind of experiment: YFP-halide influx assay for the CFTR-G551D mutation (HEK293 cells). Conditions: read-out: EC50 measured by YFP-halide influx assay for the CFTR-G551D. The source says: 6.3. YFP-Halide Influx Assay for the CFTR-G551D Mutation
The YFP halide influx assay measures the functionality of the cystic fibrosis Transmembrane Conductance regulator (CFTR) channels. The assay is used to evaluate the capacity of compounds to increase the channel opening of existing mutant CFTR channels in the membrane. It makes use of the observation that the yellow fluorescent protein (YFP) variant YFP H148Q, I152L, F47L has its fluorescence substantially quenched by halide ions like Cl^− and I^−. (Galietta et al., 2001)
For this purpose, HEK293-cells are seeded in 96 well plates. During seeding, the cells are reverse-transfected with plasmid vectors that direct the expression of the CFTR G551D mutant and of the YFP reporter. Cells are incubated at 37° C., 5% CO2 for 24 hours so as to allow for sufficient expression of the CFTR protein.
The I^−-induced quenching of fluorescence is recorded immediately after injection of I^− for 7 seconds. The capacity of a compound to increase the channel opening is directly correlated with the decrease in fluorescence, and is expressed as (1−(fluorescence after 7 seconds (F)/fluorescence before injection (F0))) and an EC50 can be derived from a (1−F/F0) vs compound concentration plot.

The mark [3] stands for this setting: compounds of the invention, 96 well, forskolin 10.67 μM.
The mark [4] stands for this setting: HEK293 cells expressing CFTR G551D and YFP reporter, forskolin 10.67 μM.

Like-named read-outs stand apart in the source and are kept apart here. Some results are limits rather than exact numbers.

T2 sequence (P13569 whole entry G551D): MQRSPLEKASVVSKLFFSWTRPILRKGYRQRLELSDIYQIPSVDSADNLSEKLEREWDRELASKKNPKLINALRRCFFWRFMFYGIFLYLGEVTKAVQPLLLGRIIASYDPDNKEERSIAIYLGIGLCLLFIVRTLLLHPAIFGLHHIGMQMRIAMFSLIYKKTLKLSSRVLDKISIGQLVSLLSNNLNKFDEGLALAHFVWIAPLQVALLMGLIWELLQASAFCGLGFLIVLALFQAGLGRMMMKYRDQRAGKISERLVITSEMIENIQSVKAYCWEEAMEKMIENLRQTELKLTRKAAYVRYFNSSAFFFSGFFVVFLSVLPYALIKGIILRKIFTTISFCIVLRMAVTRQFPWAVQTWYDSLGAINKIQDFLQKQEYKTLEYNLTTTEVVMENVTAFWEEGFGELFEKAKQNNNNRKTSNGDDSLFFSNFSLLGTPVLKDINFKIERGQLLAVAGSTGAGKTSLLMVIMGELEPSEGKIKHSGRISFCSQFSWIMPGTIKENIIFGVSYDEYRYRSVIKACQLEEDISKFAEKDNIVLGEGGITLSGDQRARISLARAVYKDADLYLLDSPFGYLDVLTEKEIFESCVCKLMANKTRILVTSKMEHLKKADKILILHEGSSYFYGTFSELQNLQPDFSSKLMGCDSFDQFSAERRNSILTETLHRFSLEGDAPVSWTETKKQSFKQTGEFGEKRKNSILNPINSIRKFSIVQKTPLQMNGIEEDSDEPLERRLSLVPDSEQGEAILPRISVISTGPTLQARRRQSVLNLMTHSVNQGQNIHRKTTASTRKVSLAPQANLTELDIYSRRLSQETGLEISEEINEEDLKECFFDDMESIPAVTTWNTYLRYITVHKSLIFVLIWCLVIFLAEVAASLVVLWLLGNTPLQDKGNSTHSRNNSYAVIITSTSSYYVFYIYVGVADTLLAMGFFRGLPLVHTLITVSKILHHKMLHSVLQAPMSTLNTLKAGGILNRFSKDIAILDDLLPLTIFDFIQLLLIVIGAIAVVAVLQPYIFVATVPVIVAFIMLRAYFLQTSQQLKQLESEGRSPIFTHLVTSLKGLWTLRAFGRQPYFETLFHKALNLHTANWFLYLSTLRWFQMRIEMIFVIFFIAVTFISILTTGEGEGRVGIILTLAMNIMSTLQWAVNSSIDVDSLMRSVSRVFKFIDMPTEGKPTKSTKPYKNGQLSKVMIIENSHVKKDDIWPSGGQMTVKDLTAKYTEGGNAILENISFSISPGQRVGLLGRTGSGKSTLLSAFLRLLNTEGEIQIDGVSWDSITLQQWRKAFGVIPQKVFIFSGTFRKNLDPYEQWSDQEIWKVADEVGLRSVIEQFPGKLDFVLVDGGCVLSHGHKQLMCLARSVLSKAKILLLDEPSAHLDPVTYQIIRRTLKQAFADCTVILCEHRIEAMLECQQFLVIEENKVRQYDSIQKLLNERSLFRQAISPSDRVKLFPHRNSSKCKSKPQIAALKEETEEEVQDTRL
T1 sequence (P13569 with tags, fused parts or gaps DEL508-508): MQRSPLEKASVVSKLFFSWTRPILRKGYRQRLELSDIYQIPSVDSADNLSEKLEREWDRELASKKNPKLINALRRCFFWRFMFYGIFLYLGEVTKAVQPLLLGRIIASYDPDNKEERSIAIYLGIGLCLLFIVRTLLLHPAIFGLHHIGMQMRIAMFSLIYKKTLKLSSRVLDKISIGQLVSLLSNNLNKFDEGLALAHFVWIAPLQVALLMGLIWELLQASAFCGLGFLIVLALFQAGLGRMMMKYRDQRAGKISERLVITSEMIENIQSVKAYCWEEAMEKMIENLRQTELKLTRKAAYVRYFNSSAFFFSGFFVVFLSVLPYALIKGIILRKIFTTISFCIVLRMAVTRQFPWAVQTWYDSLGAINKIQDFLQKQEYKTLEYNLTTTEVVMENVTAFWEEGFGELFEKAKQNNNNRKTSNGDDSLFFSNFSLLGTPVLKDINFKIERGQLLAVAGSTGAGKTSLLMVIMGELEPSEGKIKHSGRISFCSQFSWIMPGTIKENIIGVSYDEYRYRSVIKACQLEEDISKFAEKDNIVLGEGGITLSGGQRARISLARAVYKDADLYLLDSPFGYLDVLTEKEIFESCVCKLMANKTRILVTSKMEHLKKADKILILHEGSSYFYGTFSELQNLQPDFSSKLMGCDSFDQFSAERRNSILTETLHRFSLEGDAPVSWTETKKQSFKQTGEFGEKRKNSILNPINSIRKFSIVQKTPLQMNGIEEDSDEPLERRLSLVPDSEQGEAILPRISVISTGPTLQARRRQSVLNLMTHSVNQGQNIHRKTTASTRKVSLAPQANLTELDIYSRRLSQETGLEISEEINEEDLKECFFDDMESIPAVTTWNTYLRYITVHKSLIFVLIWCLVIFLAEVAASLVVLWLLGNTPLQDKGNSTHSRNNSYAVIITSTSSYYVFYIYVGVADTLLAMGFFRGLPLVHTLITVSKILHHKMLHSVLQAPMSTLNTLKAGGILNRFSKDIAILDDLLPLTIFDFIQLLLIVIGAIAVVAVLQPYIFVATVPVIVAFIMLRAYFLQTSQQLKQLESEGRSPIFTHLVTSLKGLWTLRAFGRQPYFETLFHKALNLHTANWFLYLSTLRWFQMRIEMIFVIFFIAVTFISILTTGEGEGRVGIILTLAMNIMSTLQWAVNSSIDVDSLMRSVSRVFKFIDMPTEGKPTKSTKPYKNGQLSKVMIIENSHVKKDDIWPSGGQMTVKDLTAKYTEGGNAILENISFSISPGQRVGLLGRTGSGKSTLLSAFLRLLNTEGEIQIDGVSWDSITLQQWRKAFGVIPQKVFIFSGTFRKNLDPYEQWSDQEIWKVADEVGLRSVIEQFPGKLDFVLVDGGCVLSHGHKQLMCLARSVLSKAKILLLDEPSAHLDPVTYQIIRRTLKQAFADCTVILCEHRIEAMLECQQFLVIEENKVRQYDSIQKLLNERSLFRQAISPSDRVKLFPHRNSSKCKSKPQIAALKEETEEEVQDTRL

As usually defined, the EC50 is the concentration giving half of the maximal effect. As to `NC(=O)c1c(NC(=O)c2ccccc2O)sc2c1CCNC2` [C, 2-(2-hydroxybenzamido)-4,5,6,7-tetrahydrothieno[2,3-c]pyridine-3-carboxamide, reference compound], the EC50 on CFTR ΔF508 mutant [1] (comparative compounds) was over 10 µM.

Turning to `CC1(C)Cc2c(sc(NC(=O)c3ccccc3F)c2C(N)=O)C(C)(C)O1` [Compound 1, 2-(2-fluorobenzamido)-5,5,7,7-tetramethyl-5,7-dihydro-4H-thieno[2,3-c]pyran-3-carboxamide], the concentration for a half-maximal effect (EC50) at CFTR ΔF508 mutant [1] (setting [3]) came out at 0.0122 µM; on CFTR ΔF508 mutant [2] it was 0.0656 µM; at CFTR G551D mutant (setting [4]), 0.282 µM.

As to `CC1(C)Cc2c(sc(NC(=O)c3ccccc3O)c2C(N)=O)C(C)(C)O1` [Compound 3, 2-(2-hydroxybenzamido)-5,5,7,7-tetramethyl-5,7-dihydro-4H-thieno[2,3-c]pyran-3-carboxamide], the figures for the EC50 at CFTR ΔF508 mutant [1] (setting [3]), on CFTR ΔF508 mutant [2] and on CFTR G551D mutant (setting [4]) were 0.0044 µM, 0.00646 µM and 0.162 µM, respectively.

Turning to `CC1(C)Cc2c(sc(NC(=O)c3ccccc3C(F)(F)F)c2C(N)=O)C(C)(C)O1` [Compound 5, 5,5,7,7-tetramethyl-2-(2-(trifluoromethyl)benzamido)-5,7-dihydro-4H-thieno[2,3-c]pyran-3-carboxamide], the results for the concentration for a half-maximal effect (EC50) on CFTR ΔF508 mutant [1] (setting [3]), at CFTR ΔF508 mutant [2] and at CFTR G551D mutant (setting [4]) were 0.0634 µM, 0.0478 µM and 0.764 µM, respectively.

`CC1(C)Cc2c(sc(NC(=O)c3ccc(F)cc3C(F)(F)F)c2C(N)=O)C(C)(C)O1` [Compound 7, 2-(4-fluoro-2-(trifluoromethyl)benzamido)-5,5,7,7-tetramethyl-5,7-dihydro-4H-thieno[2,3-c]pyran-3-carboxamide]: the half-maximal effective concentration (EC50) on CFTR ΔF508 mutant [1] (setting [3]) is 0.0602 µM; at CFTR ΔF508 mutant [2] it was 0.0703 µM; on CFTR G551D mutant (setting [4]), 1.09 µM.

Consider `CC(O)C(=O)Nc1sc2c(c1C(N)=O)CC(C)(C)OC2(C)C` (centres unmarked) [Compound 22, 2-(2-hydroxypropanamido)-5,5,7,7-tetramethyl-5,7-dihydro-4H-thieno[2,3-c]pyran-3-carboxamide], for which the concentration for a half-maximal effect (EC50) on CFTR ΔF508 mutant [1] (setting [3]) was 0.219 µM; at CFTR ΔF508 mutant [2], 0.083 µM.

On to `CC1(C)Cc2c(sc(NC(=O)c3cccc(F)n3)c2C(N)=O)C(C)(C)O1` [Compound 24, N-(3-carbamoyl-5,5,7,7-tetramethyl-5,7-dihydro-4H-thieno[2,3-c]pyran-2-yl)-6-fluoropicolinamide], for which the concentration for a half-maximal effect (EC50) on CFTR ΔF508 mutant [1] (setting [3]) is 0.314 µM; on CFTR ΔF508 mutant [2], 0.234 µM.

Turning to `CC1(C)Cc2c(sc(NC(=O)c3ccccc3-c3ncn[nH]3)c2C(N)=O)C(C)(C)O1` [Compound 26, 2-(2-(1H-1,2,4-triazol-5-yl)benzamido)-5,5,7,7-tetramethyl-5,7-dihydro-4H-thieno[2,3-c]pyran-3-carboxamide], the EC50 on CFTR ΔF508 mutant [1] (setting [3]) came out at 1.27 µM.

`CC1(C)Cc2c(sc(NC(=O)C3CNC(=O)C3)c2C(N)=O)C(C)(C)O1` (centres unmarked) [Compound 29, N-(3-carbamoyl-5,5,7,7-tetramethyl-5,7-dihydro-4H-thieno[2,3-c]pyran-2-yl)-5-oxopyrrolidine-3-carboxamide]: the EC50 at CFTR ΔF508 mutant [1] (setting [3]) was 10 µM.

Take `CN1CCc2[nH]nc(C(=O)Nc3sc4c(c3C(N)=O)CC(C)(C)OC4(C)C)c2C1` [Compound 31, N-(3-carbamoyl-5,5,7,7-tetramethyl-5,7-dihydro-4H-thieno[2,3-c]pyran-2-yl)-5-methyl-4,5,6,7-tetrahydro-1H-pyrazolo[4,3-c]pyridine-3-carboxamide]: the EC50 at CFTR ΔF508 mutant [1] (setting [3]) and on CFTR ΔF508 mutant [2] was 0.354 µM throughout.

As for `CC(=O)OC1(C(=O)Nc2sc3c(c2C(N)=O)CC(C)(C)OC3(C)C)CCOCC1` [Compound 41, 4-(3-carbamoyl-5,5,7,7-tetramethyl-5,7-dihydro-4H-thieno[2,3-c]pyran-2-ylcarbamoyl)tetrahydro-2H-pyran-4-yl acetate], the half-maximal effective concentration (EC50) at CFTR ΔF508 mutant [1] (setting [3]) is 1.74 µM; on CFTR ΔF508 mutant [2], 0.602 µM.

Consider `CC1(C)Cc2c(sc(NC(=O)c3ccn(CC(F)F)n3)c2C(N)=O)C(C)(C)O1` [Compound 126, N-(3-carbamoyl-5,5,7,7-tetramethyl-4H-thieno[2,3-c]pyran-2-yl)-1-(2,2-difluoroethyl)pyrazole-3-carboxamide], for which the concentration giving a half-maximal response (EC50) at CFTR ΔF508 mutant [2] stood at 0.555 µM; on CFTR G551D mutant (setting [4]), 3.33 µM.

In the case of `CC1(C)Cc2c(sc(NC(=O)c3cscn3)c2C(N)=O)C(C)(C)O1` [Compound 128, N-(3-carbamoyl-5,5,7,7-tetramethyl-4H-thieno[2,3-c]pyran-2-yl)thiazole-4-carboxamide], the EC50 stood at 0.0342 µM on CFTR ΔF508 mutant [2] and 0.878 µM on CFTR G551D mutant (setting [4]).

As for `CC1(C)Cc2c(sc(NC(=O)c3cocn3)c2C(N)=O)C(C)(C)O1` [Compound 129, N-(3-carbamoyl-5,5,7,7-tetramethyl-4H-thieno[2,3-c]pyran-2-yl)oxazole-4-carboxamide], the results for the concentration giving a half-maximal response (EC50) at CFTR ΔF508 mutant [2] and on CFTR G551D mutant (setting [4]) were 0.0773 µM and 2.29 µM, respectively.

For the compound `CC1(C)Cc2c(sc(NC(=O)c3ccno3)c2C(N)=O)C(C)(C)O1` [Compound 133, N-(3-carbamoyl-5,5,7,7-tetramethyl-4H-thieno[2,3-c]pyran-2-yl)isoxazole-5-carboxamide], the 50% effective concentration (EC50) on CFTR ΔF508 mutant [2] amounted to 0.552 µM; at CFTR G551D mutant (setting [4]), 3.33 µM.

For the compound `CC1(C)Cc2c(sc(NC(=O)c3cncs3)c2C(N)=O)C(C)(C)O1` [Compound 134, N-(3-carbamoyl-5,5,7,7-tetramethyl-4H-thieno[2,3-c]pyran-2-yl)thiazole-5-carboxamide], the EC50 on CFTR ΔF508 mutant [2] amounted to 0.0786 µM; on CFTR G551D mutant (setting [4]) it was 2.02 µM.

Consider `Cc1ncoc1C(=O)Nc1sc2c(c1C(N)=O)CC(C)(C)OC2(C)C` [Compound 135, N-(3-carbamoyl-5,5,7,7-tetramethyl-4H-thieno[2,3-c]pyran-2-yl)-4-methyl-oxazole-5-carboxamide], for which the EC50 turned out to be 0.138 µM on CFTR ΔF508 mutant [2] and 2.03 µM at CFTR G551D mutant (setting [4]).

For the compound `Cn1ncc(C(=O)Nc2sc3c(c2C(N)=O)CC(C)(C)OC3(C)C)c1C(F)(F)F` [Compound 137, N-(3-carbamoyl-5,5,7,7-tetramethyl-4H-thieno[2,3-c]pyran-2-yl)-1-methyl-5-(trifluoromethyl)pyrazole-4-carboxamide], the EC50 at CFTR ΔF508 mutant [2] was found to be 0.128 µM; at CFTR G551D mutant (setting [4]), 2.66 µM.

Consider `CCCCc1ccc(C(=O)Nc2sc3c(c2C(N)=O)CC(C)(C)OC3(C)C)c(=O)[nH]1` [Compound 139, 6-butyl-N-(3-carbamoyl-5,5,7,7-tetramethyl-4H-thieno[2,3-c]pyran-2-yl)-2-oxo-1H-pyridine-3-carboxamide], for which the EC50 was determined as 0.057 µM at CFTR ΔF508 mutant [2] and 0.577 µM on CFTR G551D mutant (setting [4]).

`Cc1cnc(C(=O)Nc2sc3c(c2C(N)=O)CC(C)(C)OC3(C)C)cn1` [Compound 141, N-(3-carbamoyl-5,5,7,7-tetramethyl-4H-thieno[2,3-c]pyran-2-yl)-5-methyl-pyrazine-2-carboxamide]: the concentration giving a half-maximal response (EC50) at CFTR ΔF508 mutant [2] is 0.0995 µM; on CFTR G551D mutant (setting [4]), 1.62 µM.

For the compound `Cc1ccc(C(=O)Nc2sc3c(c2C(N)=O)CC(C)(C)OC3(C)C)cn1` [Compound 143, N-(3-carbamoyl-5,5,7,7-tetramethyl-4H-thieno[2,3-c]pyran-2-yl)-6-methyl-pyridine-3-carboxamide], the EC50 at CFTR ΔF508 mutant [2] was determined as 0.153 µM; on CFTR G551D mutant (setting [4]), 2.71 µM.

In the case of `CC1(C)Cc2c(sc(NC(=O)[C@](C)(O)C(F)(F)F)c2C(N)=O)C(C)(C)O1` [Compound 152, 5,5,7,7-tetramethyl-2-[[(2S)-3,3,3-trifluoro-2-hydroxy-2-methyl-propanoyl]amino]-4H-thieno[2,3-c]pyran-3-carboxamide], the figures for the EC50 at CFTR ΔF508 mutant [2] and on CFTR G551D mutant (setting [4]) were 0.012 µM and 2.16 µM, respectively.

As to `NC(=O)c1c(NC(=O)c2ccccc2O)sc2c1CCOC2` [D, 2-(2-hydroxybenzamido)-5,7-dihydro-4H-thieno[2,3-c]pyran-3-carboxamide, reference compound], the concentration giving a half-maximal response (EC50) on CFTR ΔF508 mutant [1] (comparative compounds) is 0.156 µM; on CFTR G551D mutant (comparative compounds, HEK293 cells), over 10 µM.

(Values after patent US9351955B2, “Compounds and pharmaceutical compositions thereof for the treatment of cystic fibrosis” (Galapagos NV, priority 2013, dated 2016).)
